Reference: patent publication US11981658B2, “Substituted aminopyridine compounds as EGFR inhibitors” (YUHAN CORPORATION, priority 2021, dated 2024)
Like-named read-outs stand apart in the source and are kept apart here.

Key:
[1] = target: EGFR L858R/T790M/C797S (Homo sapiens, UniProt P00533, C797S/L858R/T790M); test: Biochemical EGFR kinase inhibition assay (Lance Ultra TR-FRET), triple mutant L858R/T790M/C797S
How it was run: (§1)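 Kinase activity is measured by TR-FRET phosphopeptide detection. Compounds span 0.003 μM to 10 μM; the 1 h reaction at room temperature is quenched with EDTA, then labelled antibody (2 nM) is incubated 60 min before reading.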

[2] = target: EGFR wildtype (WT) (Homo sapiens, UniProt P00533); test: Biochemical EGFR kinase inhibition assay (Lance Ultra TR-FRET), wildtype
How it was run: as §1

[3] = target: EGFR L858R/C797S (Homo sapiens, UniProt P00533, C797S/L858R); test: Biochemical EGFR kinase inhibition assay (Lance Ultra TR-FRET), double mutant L858R/C797S
Sequence of EGFR L858R/C797S (P00533 25-1210 C797S/L858R): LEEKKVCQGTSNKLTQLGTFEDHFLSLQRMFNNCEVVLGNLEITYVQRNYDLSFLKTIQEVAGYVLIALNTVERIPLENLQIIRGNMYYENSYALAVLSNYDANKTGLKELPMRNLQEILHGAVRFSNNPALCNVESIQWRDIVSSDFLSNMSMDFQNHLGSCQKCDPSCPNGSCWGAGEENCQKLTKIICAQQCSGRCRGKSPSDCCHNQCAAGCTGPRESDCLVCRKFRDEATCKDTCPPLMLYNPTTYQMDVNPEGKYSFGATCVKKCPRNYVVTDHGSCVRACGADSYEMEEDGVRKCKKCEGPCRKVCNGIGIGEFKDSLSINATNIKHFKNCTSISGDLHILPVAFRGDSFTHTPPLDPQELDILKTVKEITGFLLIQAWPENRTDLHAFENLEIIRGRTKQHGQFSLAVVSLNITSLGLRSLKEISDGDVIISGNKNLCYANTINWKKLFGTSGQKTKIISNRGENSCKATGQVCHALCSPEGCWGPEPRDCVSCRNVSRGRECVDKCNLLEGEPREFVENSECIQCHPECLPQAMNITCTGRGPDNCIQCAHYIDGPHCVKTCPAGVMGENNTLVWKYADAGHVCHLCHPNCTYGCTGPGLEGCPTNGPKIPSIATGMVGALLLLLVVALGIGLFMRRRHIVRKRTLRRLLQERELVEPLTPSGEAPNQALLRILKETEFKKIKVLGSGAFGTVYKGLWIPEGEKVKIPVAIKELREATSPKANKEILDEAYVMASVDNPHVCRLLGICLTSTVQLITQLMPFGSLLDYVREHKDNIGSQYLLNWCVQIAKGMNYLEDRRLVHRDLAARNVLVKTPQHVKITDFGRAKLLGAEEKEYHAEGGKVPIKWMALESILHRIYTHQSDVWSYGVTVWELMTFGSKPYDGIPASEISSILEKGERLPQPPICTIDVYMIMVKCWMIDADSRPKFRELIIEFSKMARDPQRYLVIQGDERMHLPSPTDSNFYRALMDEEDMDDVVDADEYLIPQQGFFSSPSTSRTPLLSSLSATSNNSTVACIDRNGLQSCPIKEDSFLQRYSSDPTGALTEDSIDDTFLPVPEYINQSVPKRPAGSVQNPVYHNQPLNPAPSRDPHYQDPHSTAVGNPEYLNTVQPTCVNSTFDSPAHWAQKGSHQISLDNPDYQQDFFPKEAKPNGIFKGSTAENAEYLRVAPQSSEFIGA
How it was run: as §1

[4] = target: EGFR Del19/T790M/C797S (Homo sapiens, UniProt P00533, C797S/DEL746-750/T790M); test: Biochemical EGFR kinase inhibition assay (Lance Ultra TR-FRET), triple mutant del19/T790M/C797S
Sequence of EGFR Del19/T790M/C797S (P00533 with tags, fused parts or gaps DEL746-750/T790M/C797S): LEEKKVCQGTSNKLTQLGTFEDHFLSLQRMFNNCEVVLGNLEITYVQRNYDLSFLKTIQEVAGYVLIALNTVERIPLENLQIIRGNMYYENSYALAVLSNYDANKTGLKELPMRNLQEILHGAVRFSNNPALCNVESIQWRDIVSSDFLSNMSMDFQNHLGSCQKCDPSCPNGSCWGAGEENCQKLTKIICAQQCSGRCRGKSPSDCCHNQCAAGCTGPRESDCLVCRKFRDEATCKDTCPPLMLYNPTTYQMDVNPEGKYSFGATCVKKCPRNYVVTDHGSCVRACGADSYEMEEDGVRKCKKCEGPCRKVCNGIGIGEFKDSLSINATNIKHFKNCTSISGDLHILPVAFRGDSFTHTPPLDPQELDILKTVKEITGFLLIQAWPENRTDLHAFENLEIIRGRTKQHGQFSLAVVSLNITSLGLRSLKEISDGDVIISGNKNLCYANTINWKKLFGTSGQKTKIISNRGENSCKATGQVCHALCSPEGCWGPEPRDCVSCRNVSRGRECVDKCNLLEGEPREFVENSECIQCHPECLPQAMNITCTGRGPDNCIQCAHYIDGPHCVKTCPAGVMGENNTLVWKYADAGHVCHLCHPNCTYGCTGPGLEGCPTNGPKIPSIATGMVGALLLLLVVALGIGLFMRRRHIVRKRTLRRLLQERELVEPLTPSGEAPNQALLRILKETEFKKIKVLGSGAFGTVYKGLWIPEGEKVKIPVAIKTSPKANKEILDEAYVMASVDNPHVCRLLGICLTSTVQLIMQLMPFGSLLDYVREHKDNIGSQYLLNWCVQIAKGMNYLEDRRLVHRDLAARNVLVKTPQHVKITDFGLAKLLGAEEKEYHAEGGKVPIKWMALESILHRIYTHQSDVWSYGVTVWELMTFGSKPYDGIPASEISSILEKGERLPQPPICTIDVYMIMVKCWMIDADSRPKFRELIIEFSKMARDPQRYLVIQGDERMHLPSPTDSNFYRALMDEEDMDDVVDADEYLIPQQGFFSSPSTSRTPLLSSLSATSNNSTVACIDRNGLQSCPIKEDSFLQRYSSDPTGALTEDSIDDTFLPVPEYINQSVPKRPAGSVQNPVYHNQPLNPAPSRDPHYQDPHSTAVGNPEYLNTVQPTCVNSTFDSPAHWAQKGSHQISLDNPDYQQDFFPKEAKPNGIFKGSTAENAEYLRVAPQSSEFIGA
How it was run: as §1

[5] = target: EGFR Del19/C797S (Homo sapiens, UniProt P00533, C797S/DEL746-750); test: Biochemical EGFR kinase inhibition assay (Lance Ultra TR-FRET), double mutant del19/C797S
Sequence of EGFR Del19/C797S (P00533 with tags, fused parts or gaps DEL746-750/C797S): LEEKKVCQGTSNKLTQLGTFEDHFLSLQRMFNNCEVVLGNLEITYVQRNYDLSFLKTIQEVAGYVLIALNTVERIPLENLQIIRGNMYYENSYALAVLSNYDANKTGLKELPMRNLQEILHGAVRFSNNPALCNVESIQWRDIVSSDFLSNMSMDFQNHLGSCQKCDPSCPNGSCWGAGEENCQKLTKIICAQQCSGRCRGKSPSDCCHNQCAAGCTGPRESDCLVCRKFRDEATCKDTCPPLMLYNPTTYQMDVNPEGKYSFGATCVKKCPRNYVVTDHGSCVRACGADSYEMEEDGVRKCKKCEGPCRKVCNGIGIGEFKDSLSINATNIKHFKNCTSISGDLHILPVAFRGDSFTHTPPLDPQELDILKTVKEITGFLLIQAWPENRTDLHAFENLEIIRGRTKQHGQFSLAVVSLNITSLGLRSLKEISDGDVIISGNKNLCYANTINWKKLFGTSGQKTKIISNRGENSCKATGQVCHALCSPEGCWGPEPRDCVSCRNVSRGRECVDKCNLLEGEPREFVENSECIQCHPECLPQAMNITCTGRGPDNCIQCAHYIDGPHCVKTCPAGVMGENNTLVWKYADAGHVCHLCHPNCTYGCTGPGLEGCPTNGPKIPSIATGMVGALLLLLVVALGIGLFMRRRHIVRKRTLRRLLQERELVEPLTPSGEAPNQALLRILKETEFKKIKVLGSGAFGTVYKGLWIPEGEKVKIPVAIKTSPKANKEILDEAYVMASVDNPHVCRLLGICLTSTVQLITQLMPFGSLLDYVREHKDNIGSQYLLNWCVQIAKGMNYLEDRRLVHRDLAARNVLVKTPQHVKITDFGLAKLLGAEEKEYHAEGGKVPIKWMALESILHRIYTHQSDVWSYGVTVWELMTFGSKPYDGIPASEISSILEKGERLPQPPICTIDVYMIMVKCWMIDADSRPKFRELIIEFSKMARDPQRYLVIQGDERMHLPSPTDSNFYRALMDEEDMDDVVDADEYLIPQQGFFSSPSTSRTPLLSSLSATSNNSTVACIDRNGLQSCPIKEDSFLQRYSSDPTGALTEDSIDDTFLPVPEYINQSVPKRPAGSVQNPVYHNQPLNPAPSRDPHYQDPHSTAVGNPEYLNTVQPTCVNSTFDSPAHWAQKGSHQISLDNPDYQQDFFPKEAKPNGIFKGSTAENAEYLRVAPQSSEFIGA
How it was run: as §1

[6] = IC50 L858R/T790M/C797S (nM), 100 μM ATP
[7] = IC50 L858R/C797S (nM), 100 μM ATP
[8] = IC50 Del19/T790M/C797S (nM), 100 μM ATP
[9] = IC50 Del19/C797S (nM), 100 μM ATP
[10] = Km ATP, read-out: IC50 L858R/T790M/C797S (nM), Km ATP
[11] = Km ATP, read-out: IC50 WT (nM), Km ATP
[12] = Km ATP, read-out: IC50 L858R/C797S (nM), Km ATP
[13] = Km ATP, read-out: IC50 Del19/T790M/C797S (nM), Km ATP
[14] = Km ATP, read-out: IC50 Del19/C797S (nM), Km ATP
[15] = ATP at Km, read-out: IC50 L858R/T790M/C797S (nM), Km ATP
[16] = ATP at Km, read-out: IC50 WT (nM), Km ATP
[17] = ATP at Km, read-out: IC50 L858R/C797S (nM), Km ATP
[18] = ATP at Km, read-out: IC50 Del19/T790M/C797S (nM), Km ATP
[19] = ATP at Km, read-out: IC50 Del19/C797S (nM), Km ATP

Sequence of EGFR L858R/T790M/C797S (P00533 25-1210 T790M/C797S/L858R): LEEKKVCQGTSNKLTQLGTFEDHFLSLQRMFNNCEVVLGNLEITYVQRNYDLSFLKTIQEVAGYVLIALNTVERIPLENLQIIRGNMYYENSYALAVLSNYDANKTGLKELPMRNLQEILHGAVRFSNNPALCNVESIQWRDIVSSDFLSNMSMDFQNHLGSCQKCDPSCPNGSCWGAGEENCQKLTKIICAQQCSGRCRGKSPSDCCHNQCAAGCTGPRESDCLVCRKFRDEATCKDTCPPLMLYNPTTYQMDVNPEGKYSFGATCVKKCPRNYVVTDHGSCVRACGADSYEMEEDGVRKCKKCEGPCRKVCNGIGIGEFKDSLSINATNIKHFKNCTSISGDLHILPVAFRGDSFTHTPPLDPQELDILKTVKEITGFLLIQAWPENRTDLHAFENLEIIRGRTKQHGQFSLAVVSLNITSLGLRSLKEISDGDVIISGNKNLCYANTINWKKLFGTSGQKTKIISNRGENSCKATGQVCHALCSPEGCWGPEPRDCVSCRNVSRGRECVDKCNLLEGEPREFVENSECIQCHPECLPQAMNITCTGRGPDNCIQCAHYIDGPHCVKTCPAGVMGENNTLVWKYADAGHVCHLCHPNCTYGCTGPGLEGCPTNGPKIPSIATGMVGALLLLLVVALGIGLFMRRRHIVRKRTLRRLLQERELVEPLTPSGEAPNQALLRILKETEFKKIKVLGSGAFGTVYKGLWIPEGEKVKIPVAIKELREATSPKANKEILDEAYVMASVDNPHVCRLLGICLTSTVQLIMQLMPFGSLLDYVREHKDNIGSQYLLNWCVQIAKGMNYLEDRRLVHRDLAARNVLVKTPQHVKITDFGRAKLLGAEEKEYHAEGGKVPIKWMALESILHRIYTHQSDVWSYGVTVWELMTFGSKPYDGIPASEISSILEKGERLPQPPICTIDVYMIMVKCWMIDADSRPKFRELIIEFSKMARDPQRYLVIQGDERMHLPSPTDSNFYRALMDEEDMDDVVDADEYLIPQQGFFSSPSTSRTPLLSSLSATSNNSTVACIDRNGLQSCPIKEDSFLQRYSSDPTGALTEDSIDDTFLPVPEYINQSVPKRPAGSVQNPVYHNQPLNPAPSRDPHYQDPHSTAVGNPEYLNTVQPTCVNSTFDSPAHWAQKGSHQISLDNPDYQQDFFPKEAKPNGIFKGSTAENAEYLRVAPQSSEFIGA

Row | Compound | IC50 [1, 6] | IC50 ([2]; IC50 WT (nM), 100 μM ATP) | IC50 [3, 7] | IC50 [4, 8] | IC50 [5, 9] | IC50 [1, 10] | IC50 [2, 11] | IC50 [3, 12] | IC50 [4, 13] | IC50 [5, 14] | IC50 [1, 15] | IC50 [2, 16] | IC50 [3, 17] | IC50 [4, 18] | IC50 [5, 19] | IC50 ([1]; read-out: IC50 L858R/T790M/C797S (nM), 100 μM ATP) | IC50 ([2]; read-out: IC50 WT (nM), 100 μM ATP) | IC50 ([3]; read-out: IC50 L858R/C797S (nM), 100 μM ATP) | IC50 ([4]; read-out: IC50 Del19/T790M/C797S (nM), 100 μM ATP) | IC50 ([5]; read-out: IC50 Del19/C797S (nM), 100 μM ATP)
1 | CC1(O)CC2(CCN(c3cc(Nc4ccnc(-c5cnn(S(=O)(=O)C6CC6)c5)n4)ncc3C#Cc3cnn(CC(F)(F)F)c3)CC2)C1 [Example 347, 7-(2-((2-(1-(Cyclopropylsulfonyl)-1H-pyrazol-4-yl)pyrimidin-4-yl)amino)-5-((1-(2,2,2-trifluoroethyl)-1H-pyrazol-4-yl)ethynyl)pyridin-4-yl)-2-methyl-7-azaspiro[3.5]nonan-2-ol] | 1.7 nM | 7140 nM | 11.7 nM | 6 nM | 8.4 nM | 3.2 nM | 74.3 nM | 5.9 nM | 5.4 nM | 9.2 nM |  |  |  |  |  |  |  |  |  | 
2 | O=S(=O)(C1CC1)n1cc(-c2nccc(Nc3cc(N[C@H]4CC[C@@H](CO)CC4)c(C#Cc4cnn(CC(F)F)c4)cn3)n2)cn1 [Example 324, ((1s,4s)-4-((2-((2-(1-(Cyclopropylsulfonyl)-1H-pyrazol-4-yl)pyrimidin-4-yl)amino)-5-((1-(2,2-difluoroethyl)-1H-pyrazol-4-yl)ethynyl)pyridin-4-yl)amino)cyclohexyl)methanol] | 0.5 nM | > 10000 nM | 20.9 nM | 0.3 nM | 2 nM |  |  |  |  |  | 0.2 nM | 16.5 nM | 3.7 nM | 0.3 nM | 1.3 nM |  |  |  |  | 
3 | C[C@]1(O)CC[C@@H](Nc2cc(Nc3ccnc(-c4cnn(S(=O)(=O)C5CC5)c4)n3)ncc2C#CCN2CCOCC2)CC1 [Example 166, (1s,4s)-4-((2-((2-(1-(Cyclopropylsulfonyl)-1H-pyrazol-4-yl)pyrimidin-4-yl)amino)-5-(3-morpholinoprop-1-yn-1-yl)pyridin-4-yl)amino)-1-methylcyclohexan-1-ol] |  |  |  |  |  |  |  |  |  |  | 0.9 nM | 411 nM | 21.9 nM | 1.4 nM | 66.5 nM | 3.8 nM | > 10000 nM | 194 nM | 1.9 nM | 51.1 nM
4 | O=S(=O)(C1CC1)n1cc(-c2nccc(Nc3cc(N[C@H]4CC[C@@H](CO)CC4)c(C#CC4C[C@@H]5CC[C@@H]4O5)cn3)n2)cn1 (stereo partly drawn) [Example 422, ((1s,4s)-4-((5-((7-Oxabicyclo[2.2.1]heptan-2-yl)ethynyl)-2-((2-(1-(cyclopropylsulfonyl)-1H-pyrazol-4-yl)pyrimidin-4-yl)amino)pyridin-4-yl)amino)cyclohexyl)methanol] | 0.5 nM | 6510 nM | 59.4 nM | 0.4 nM | 2.6 nM | 0.4 nM | 10.5 nM | 3.2 nM | 0.9 nM | 2.6 nM |  |  |  |  |  |  |  |  |  | 
5 | CC1(CO)CCN(c2cc(Nc3ccnc(-c4cnn(S(=O)(=O)C5CC5)c4)n3)ncc2C#Cc2cnn(C(F)F)c2)CC1 [Example 305, (1-(2-((2-(1-(Cyclopropylsulfonyl)-1H-pyrazol-4-yl)pyrimidin-4-yl)amino)-5-((1-(difluoromethyl)-1H-pyrazol-4-yl)ethynyl)pyridin-4-yl)-4-methylpiperidin-4-yl)methanol] | 0.9 nM | 1520 nM | 5.4 nM | 1 nM | 2.4 nM |  |  |  |  |  | 0.5 nM |  | 0.8 nM | 1.3 nM | 0.6 nM |  |  |  |  | 
6 | Cn1cc(C#Cc2cnc(Nc3ccnc(-c4cnn(S(=O)(=O)C5CC5)c4)n3)cc2N2CCCC(F)C2)cn1 (stereo not drawn) [Example 70, 2-(1-(Cyclopropylsulfonyl)-1H-pyrazol-4-yl)-N-(4-(3-fluoropiperidin-1-yl)-5-((1-methyl-1H-pyrazol-4-yl)ethynyl)pyridin-2-yl)pyrimidin-4-amine] | 10.4 nM | > 10000 nM | 172 nM | 1.6 nM | 24.7 nM |  |  |  |  |  |  |  |  |  |  |  |  |  |  | 
7 | O=S(=O)(C1CC1)n1cc(-c2nccc(Nc3cc(N4C[C@@H]5[C@@H](CO)[C@@H]5C4)c(C#Cc4cnn(C(F)(F)F)c4)cn3)n2)cn1 [Example 331, ((1R,5S,6r)-3-(2-((2-(1-(Cyclopropylsulfonyl)-1H-pyrazol-4-yl)pyrimidin-4-yl)amino)-5-((1-(trifluoromethyl)-1H-pyrazol-4-yl)ethynyl)pyridin-4-yl)-3-azabicyclo[3.1.0]hexan-6-yl)methanol] | 13.9 nM | > 10000 nM | 9130 nM | 10.3 nM | 245 nM | 5 nM | 309 nM | 173 nM | 6.1 nM | 87.5 nM |  |  |  |  |  |  |  |  |  | 
8 | CC1(CO)CCN(c2cc(Nc3ccnc(-c4cnn(S(=O)(=O)C5CC5)c4)n3)ncc2C#Cc2cnn(CC(F)(F)F)c2)CC1 [Example 348, (1-(2-((2-(1-(Cyclopropylsulfonyl)-1H-pyrazol-4-yl)pyrimidin-4-yl)amino)-5-((1-(2,2,2-trifluoroethyl)-1H-pyrazol-4-yl)ethynyl)pyridin-4-yl)-4-methylpiperidin-4-yl)methanol] | 0.8 nM | 651 nM | 14.3 nM | 2.1 nM | 4.9 nM | 1.4 nM | 14.1 nM | 1.1 nM | 4.2 nM | 4.7 nM |  |  |  |  |  |  |  |  |  | 
9 | CN(C)C[C@H]1CC[C@@H](Nc2cc(Nc3ccnc(-c4cnn(S(=O)(=O)C5CC5)c4)n3)ncc2C#Cc2cnn(C(F)F)c2)CC1 [Example 310, N^2-(2-(1-(Cyclopropylsulfonyl)-1H-pyrazol-4-yl)pyrimidin-4-yl)-5-((1-(difluoromethyl)-1H-pyrazol-4-yl)ethynyl)-N^4-((1s,4s)-4-((dimethylamino)methyl)cyclohexyl)pyridine-2,4-diamine] | 1.3 nM | 8840 nM | 56.3 nM | 0.8 nM | 4.2 nM |  |  |  |  |  |  | 44 nM | 1.9 nM |  | 2.9 nM |  |  |  |  | 

Continued, values first:

Row | IC50 [1, 6] | IC50 ([2]; IC50 WT (nM), 100 μM ATP) | IC50 [3, 7] | IC50 [4, 8] | IC50 [5, 9] | IC50 [1, 10] | IC50 [2, 11] | IC50 [3, 12] | IC50 [4, 13] | IC50 [5, 14] | IC50 [1, 15] | IC50 [2, 16] | IC50 [3, 17] | IC50 [4, 18] | IC50 [5, 19] | IC50 ([1]; read-out: IC50 L858R/T790M/C797S (nM), 100 μM ATP) | IC50 ([2]; read-out: IC50 WT (nM), 100 μM ATP) | IC50 ([3]; read-out: IC50 L858R/C797S (nM), 100 μM ATP) | IC50 ([4]; read-out: IC50 Del19/T790M/C797S (nM), 100 μM ATP) | IC50 ([5]; read-out: IC50 Del19/C797S (nM), 100 μM ATP) | Compound
10 | 0.6 nM | 7420 nM | 29.4 nM | 0.2 nM | 3.1 nM |  |  |  |  |  |  |  |  |  |  |  |  |  |  |  | CC1(O)CCN(c2cc(Nc3ccnc(-c4cnn(S(=O)(=O)C5CC5)c4)n3)ncc2C#CC2CCN(C(=O)C(F)(F)F)C2)CC1 (stereo not drawn) [Example 410, 1-(3-((6-((2-(1-(Cyclopropylsulfonyl)-1H-pyrazol-4-yl)pyrimidin-4-yl)amino)-4-(4-hydroxy-4-methylpiperidin-1-yl)pyridin-3-yl)ethynyl)pyrrolidin-1-yl)-2,2,2-trifluoroethan-1-one]
11 | 0.4 nM | 8540 nM | 14.8 nM | 0.4 nM | 2.7 nM |  |  |  |  |  | 0.1 nM | 19.6 nM | 2.3 nM | 0.3 nM | 2.4 nM |  |  |  |  |  | CC1(CO)CCN(c2cc(Nc3ccnc(-c4cnn(S(=O)(=O)C5CC5)c4)n3)ncc2C#CC2(O)CCOCC2)CC1 [Example 195, 4-((6-((2-(1-(cyclopropylsulfonyl)-1H-pyrazol-4-yl)pyrimidin-4-yl)amino)-4-(4-(hydroxymethyl)-4-methylpiperidin-1-yl)pyridin-3-yl)ethynyl)tetrahydro-2H-pyran-4-ol]
12 | 0.1 nM | 648 nM | 1.7 nM | 0.1 nM | 0.3 nM |  |  |  |  |  | 0.04 nM | 1.8 nM | 0.4 nM | 0.1 nM | 0.4 nM |  |  |  |  |  | CN1CCC(C#Cc2cnc(Nc3ccnc(-c4cnn(S(=O)(=O)C5CC5)c4)n3)cc2N2CCC(C)(CO)CC2)CC1 [Example 182, (1-(2-((2-(1-(Cyclopropylsulfonyl)-1H-pyrazol-4-yl)pyrimidin-4-yl)amino)-5-((1-methylpiperidin-4-yl)ethynyl)pyridin-4-yl)-4-methylpiperidin-4-yl)methanol]
13 | 0.3 nM | 8720 nM | 66.6 nM | 0.2 nM | 2.9 nM | 0.1 nM | 14.2 nM | 2 nM | 0.2 nM | 1.3 nM |  |  |  |  |  |  |  |  |  |  | CC1(O)CCN(c2cc(Nc3ccnc(-c4cnn(S(=O)(=O)C5CC5)c4)n3)ncc2C#CC2(F)CCOC2)CC1 (stereo not drawn) [Example 435, 1-(2-((2-(1-(Cyclopropylsulfonyl)-1H-pyrazol-4-yl)pyrimidin-4-yl)amino)-5-((3-fluorotetrahydrofuran-3-yl)ethynyl)pyridin-4-yl)-4-methylpiperidin-4-ol]
